# Patent US9056923B2, “Mimetic peptides derived from collagen type IV and their use for treating angiogenesis- and lymphagiogenesis-dependent diseases” (THE JOHNS HOPKINS UNIVERSITY, priority 2010, dated 2015)
# Ends that are not written are not given here.
# Columns and labels:
# [1] = tested on: microvascular endothelial cells (MEC); assay: MEC adhesion assay; type: cell-based
# Procedure: Similar to the migration assays, the inhibition activity of the peptide in cellular adhesion was assessed using the RT-CIM technology. In this case, 25,000 cells/well were plated in 16 wells E-plates (Roche, Basel Switzerland) in the presence or absence of the peptide. The adhesion was monitored over time (3 hours) by measuring changes in the electrical impedance, which is a direct measure of the cells adhering on the electrodes. […] Assays were performed in at least two independent replicates and each replicate was performed using two experimental duplicates.
# [2] = tested on: HUVEC; assay: HUVEC migration assay (RT-CIM); type: cell-based, human
# In short: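 Real-time impedance (RT-CIM) transwell migration through fibronectin-coated (20 μg/mL) 8 μm membranes; 45,000 cells/well in serum-free medium ± peptides, fully supplemented EBM-2 as chemoattractant below. Cell index recorded over 20 h at 37 °C; ≥2 independent replicates, each in duplicate.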
# [3] = tested on: MDA-MB-231-luc-D3H2LN cells; assay: Tail vein assay of cancer metastasis (lung metastasis); type: in vivo; conditions: luciferase-transfected MDA-MB-231 cells in nude mice, IVIS
# Procedure: The tail vein assay of cancer metastasis protocol from Current Protocols of Cell Biology was used to measure the effect of SP2024 on lung metastasis (Elkin and Vlodaysky, 2001). […] of 5×10^5 cells/mL luciferase-transfected MDA-MB-231-luc-D3H2LN (Caliper Biosciences) cell suspension was slowly injected into nude mice (nude mice are easier to image because of their lack of fur). Two hours before cell inoculation vehicle or 10 mg/kg SP2024 were administered subcutaneously on a daily basis. Bioluminescence to detect metastasis was measured by IVIS imaging (Caliper Biosciences) via IP injection of 150 mg/kg D-luciferin.
# [4] = tested on: HUVEC; type: cell-based, human
# In short: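 Adhesion of 25,000 cells per well, with or without peptide, followed by real-time electrical impedance on electrode plates over 3 hours. At least two independent replicates, each run in duplicate.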
# [5] = tested on: microvascular endothelial cells (MEC); assay: MEC migration assay; type: cell-based
# Procedure: The inhibitory potential of the peptides was measured using a real time migration assay system based on electrical impedance (RT-CIM, ACEA Biosciences, CA). CIM 16 well plates (Roche, 05665817001) are composed of a top and bottom chamber separated by a microporous (8 μm) polycarbonate membrane. The membrane was coated with fibronectin (20 μg/mL), and 45,000 cells/well in serum free media with or without peptides were added to the top compartment. Media with chemoattractant (i.e., fully supplemented EBM-2) was added to the bottom compartment of the chamber and the plate was incubated at 37° C. for 20 hours. The sensors integrated on the bottom side of the membrane monitor and continuously record changes in impedance as the cells move through the membrane. The RT-CIM technology allows for easy quantification of cell migration by monitoring the cell index derived from the measured impedances. Assays were performed in at least two independent replicates and each replicate was performed using two experimental duplicates.
substance,measurement,setting,value
LRRFSTMPFMFININNVINF-NH2 [SP2024],inhibition of adhesion of MEC,[1],quite active
same,Migration Inhibition (5 uM),[2]; 5 uM peptide,37.73%
same,Activity in Migration,"[2]; Yes/No summary, active = inhibitory potential greater than 30%",Yes
same,lung metastasis,[3],inhibits lung metastasis
same,IC50,[4]; 3 h,2350 ± 1300 nM
same,Adhesion Inhibition (100 uM),"[4]; HUVEC, 100 uM peptide",94.45%
same,Activity in Adhesion,"[4]; HUVEC, Yes/No summary, active = inhibitory potential greater than 30%",Yes
same,inhibition of migration of MEC,[5],quite active
